This experiment deals with MDA-MB-468 breast. The experiment is described as follows: DTP human tumour cell line panel, 48 h.

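Five compound concentrations were applied to cells in 96-well plates for 48 hours; endpoints were derived by simple linear interpolation of the resulting dose-response curve. At the GI50, growth is halved. TGI marks complete inhibition of growth.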 Some results are limits rather than exact numbers.

Usually GI50 stands for the concentration that inhibits growth by half. As a reminder, the TGI is the concentration at which net growth stops. Higher therefore signals lower sensitivity of the cells. In the case of `COc1ccc(/C=C/C(=O)c2ccc(OC)c(OC)c2)cc1O`, the GI50 was 3590 nM and the TGI turned out to be 19600 nM.

On to `O=C1c2cccc(NCCN=Cc3ccccc3O)c2C(=O)c2c(NCCN=Cc3ccccc3O)cccc21`, for which the TGI is 191 nM.

As to `CC(=O)Oc1ccc(/C(=C(\C)c2ccc(Cl)cc2)c2ccc(OCCN3CCCCC3)cc2)cc1`, the GI50 was 1450 nM and the total growth inhibition concentration (TGI) came to 3210 nM.

For the compound `Clc1ccc(-c2cc(-c3ccccc3)nc(NCCNc3ccnc4cc(Cl)ccc34)n2)cc1`, the GI50 was 1480 nM and the TGI stood at 3150 nM.

On to `COc1ccc(C2=NN(C(=O)c3cc(OC)c(OC)c(OC)c3)C(c3ccc(N(C)C)cc3)C2)cc1` (configuration not stated), for which the GI50 is 236 nM and the TGI came to 644 nM.

As for `NC(N)=N/N=C/c1ccc(-c2ccc(-c3cc(Cl)cc(Cl)c3)s2)cc1`, the GI50 was 1830 nM and the TGI came out at 3810 nM.

For `Cn1cc(C2=C(c3cn(C)c4ccccc34)C(=O)NC2=O)c2ccccc21`, the GI50 was 650 nM and the TGI is above 25000 nM.

Take `O=C1OCC2=C1C(c1ccc(Cl)c(Cl)c1)c1cc3c(cc1N2CCO)CCC3` (configuration not stated): the GI50 is 109 nM and the TGI came to 350 nM.

Turning to `CC(=O)OC1CC2C3CCC4C[C@@H](NC(=O)C=C(C)C)CC[C@]4(C)C3CC[C@]2(C)[C@H]1C(C)N(C)C` (some centres not stated), the GI50 was 800 nM and the TGI was determined as 2370 nM.

Take `CCOC(=O)C(=O)/C(=C/N1C(=O)CC(=O)NC1=S)C(=O)OCC`: the GI50 was above 100000 nM and the TGI is above 100000 nM.

As for `COc1cc(C(=O)Nc2cc(OC)c3ccn(C)c3c2)cc2c1C[C@]1(C)CC[C@@H](O)C(C)(C)[C@H]1O2`, the GI50 was 488 nM and the TGI worked out at 3010 nM.

With `Cc1ccc(NC(=O)c2sc3nc4c(cc3c2N)C(=O)CCC4)cc1C`, the GI50 is 314 nM and the TGI is above 100000 nM.

As to `COc1ccc(Nc2cc(C)nc(NCCCNc3ccnc4cc(Cl)ccc34)n2)cc1`, the GI50 was 1390 nM and the TGI turned out to be 2790 nM.

Take `CC(=O)c1cc(C(=O)c2ccc3c(c2)Sc2ccccc2N3)c2cc(C)ccn12`: the 50% growth inhibitory concentration (GI50) was 66.3 nM and the TGI was found to be 7210 nM.

Take `COc1cc(/C=C/C(=O)N2CCN(C(=O)c3cc(OC)c(OC)c(OC)c3)CC2)ccc1OCCCOc1cc2c(cc1OC)C(=O)N1CCC[C@H]1C=N2`: the GI50 is 102 nM and the TGI is 336 nM.

Consider `CCCCCCCCn1ccc2cc(NC(=O)Cn3cc(CN4CCCCC4)nn3)ccc21`, for which the GI50 was 1670 nM and the TGI is 3730 nM.

Consider `O=c1oc2ccc(Br)cc2c(=O)n1-c1ccc(I)cc1F`, for which the GI50 was 547 nM and the TGI turned out to be 2040 nM.

On to `CCOc1cccc(-c2nc(N)nc(Nc3ccccc3SSc3ccccc3Nc3nc(N)nc(-c4cccc(OCC)c4)n3)n2)c1`, for which the GI50 is 24200 nM and the TGI is above 100000 nM.

On to `COc1cc(-c2cc(-c3cc(OC)c(OC)c(OC)c3)nc3nc(N)[nH]c(=O)c23)ccc1Oc1ccnc2cc(Cl)ccc12`, for which the GI50 was 3240 nM and the TGI was above 100000 nM.

Regarding `O=C(Nc1n[nH]c2nnc(-c3cccnc3)cc12)C1CC1`, the GI50 was 805 nM and the TGI was determined as 5020 nM.

For `COc1ccc(/C=C2\C=C(c3ccccc3)N(CCc3ccccc3)C2=O)cc1OC`, the GI50 is 7570 nM and the TGI worked out at 42400 nM.

Take `N#C[Se]CCCNS(=O)(=O)C1CC2C=CC1C2` (configuration not stated): the GI50 is 1290 nM and the TGI turned out to be 4160 nM.

Consider `Cn1c(=O)c(Oc2ccc(F)cc2F)cc2cnc(NC3CCS(=O)(=O)CC3)nc21`, for which the GI50 was above 25000 nM and the TGI was above 25000 nM.

On to `Cc1ccc(Cl)c(Nc2ccccc2C(=O)O)c1Cl`, for which the GI50 was 25900 nM and the total growth inhibition concentration (TGI) worked out at 67200 nM.

With `CCN(CC)Cc1c(/C=C\c2cc(OC)c(OC)c(OC)c2)ccc(OC)c1O`, the GI50 is 7970 nM and the TGI is 34000 nM.

As to `Oc1cc2ccccc2c(-c2c(O)c(O)cc3ccccc23)c1O`, the GI50 was 1090 nM and the concentration for total growth inhibition (TGI) worked out at 17200 nM.

Regarding `CN(C)c1ccc(/C=C/C2=[N+](C)c3ccccc3C2(C)C)cc1`, the GI50 was 555 nM and the TGI was found to be 6190 nM.

Take `CCN(CC)C1CCC(Nc2c(C(C)=O)cnc3ccc(-c4ccc(O)c(Cl)c4)cc23)CC1` (configuration not stated): the GI50 was 871 nM and the TGI worked out at 15800 nM.

Consider `CN1C/C=C/CCOc2cccc(c2)-c2ccnc(n2)Nc2cccc(c2)C1`, for which the GI50 is 36.6 nM and the TGI turned out to be 107 nM.

For `CN1CCN(Cc2ccc(NC(=O)c3cccc(C#Cc4cnc(N)c5ncccc45)c3F)cc2C(F)(F)F)CC1`, the GI50 was 6200 nM and the TGI was found to be 16000 nM.

For the compound `CCCCCCCCCCCCCCCCC(=O)O.CCCCCCCCCCCCCCCCCC(=O)O.CCCCCCCCCCCCCCCCCC(=O)O.CCCCCCCCCCCCCCCCCC(=O)O.CCCCCCCCCCCCCCCCCC(=O)O.CO[CH-]OC12COC1CC(O)C1(C)C(O)C(OC(C)O)C3=C(C)C(OC(=O)C(O)C([NH-])c4ccccc4)CC(O)(C(OC(=O)c4ccccc4)C21)C3(C)C.[Cu+].[Zn].[Zn].[Zn].[Zn].[Zn]` (configuration not stated), the GI50 was 3.38 nM and the TGI was 16.6 nM.

Turning to `O=C(/C=C/c1csc(Br)n1)NO`, the GI50 was 2900 nM and the TGI is 21500 nM.

For `COc1cc2c(cc1Nc1nc(Nc3cccc(F)c3C(N)=O)c3cc[nH]c3n1)N(C(=O)CN1CCN(C(C)C)CC1)CC2`, the GI50 was 2220 nM and the TGI was 5730 nM.

On to `Cn1c(/C=C/[N+](=O)[O-])cc2ccccc21`, for which the GI50 was 1770 nM and the TGI amounted to 3370 nM.

On to `COc1cc(C(=O)N/N=C/c2ccc(N(C)C)cc2)cc(OC)c1OC`, for which the GI50 was 225 nM and the TGI came out at 1190 nM.

On to `COc1ccc(N2CCN(C3=C(Cl)C(=O)c4ncccc4C3=O)CC2)cc1`, for which the GI50 was 1840 nM and the TGI was determined as 3500 nM.

With `COC1=CC(c2ccc[nH]2)=N/C1=C\c1[nH]c(C)c(C(=O)CCCCC(=O)Oc2ccc3c(c2)CCC2C3CC[C@]3(C)[C@@H](O)CC[C@@H]23)c1C` (some centres not stated), the GI50 is 4920 nM and the TGI was above 100000 nM.

With `CC1(C)[C@@H](OC(=O)CCC(=O)O)CC[C@]2(C)[C@H]3C(=O)C=C4[C@@H]5C[C@@](C)(C(=O)O)CC[C@]5(C)CC[C@@]4(C)[C@]3(C)CC[C@@H]12`, the GI50 is 78600 nM and the TGI is 189000 nM.

Consider `CC1=C2C(=C[C@@](C)(COS(C)(=O)=O)[C@@H]2O)C(=O)[C@](C)(O)C12CC2`, for which the GI50 was 201 nM and the TGI was found to be 519 nM.

These data come from PubChem BioAssay (NCI).
